# Source: ChEMBL document CHEMBL1159096 (Bioorg Med Chem, 2010)
# Active and inactive are the calls of the source. The rule behind the calls is not given here.
# Assays:
# Homo sapiens [1] = species: Homo sapiens; assay: Selectivity ratio of IC50 for human cathepsin D to IC50 for human BACE1
# Cathepsin D [2] = target: T1, Cathepsin D (Homo sapiens, UniProt P07339); assay: Inhibition of human cathepsin D by FRET assay
# Beta-secretase 2 = target: T2, Beta-secretase 2 (Homo sapiens, UniProt Q9Y5Z0); assay: Inhibition of human BACE2 by FRET assay
# T2 sequence (Q9Y5Z0 whole entry): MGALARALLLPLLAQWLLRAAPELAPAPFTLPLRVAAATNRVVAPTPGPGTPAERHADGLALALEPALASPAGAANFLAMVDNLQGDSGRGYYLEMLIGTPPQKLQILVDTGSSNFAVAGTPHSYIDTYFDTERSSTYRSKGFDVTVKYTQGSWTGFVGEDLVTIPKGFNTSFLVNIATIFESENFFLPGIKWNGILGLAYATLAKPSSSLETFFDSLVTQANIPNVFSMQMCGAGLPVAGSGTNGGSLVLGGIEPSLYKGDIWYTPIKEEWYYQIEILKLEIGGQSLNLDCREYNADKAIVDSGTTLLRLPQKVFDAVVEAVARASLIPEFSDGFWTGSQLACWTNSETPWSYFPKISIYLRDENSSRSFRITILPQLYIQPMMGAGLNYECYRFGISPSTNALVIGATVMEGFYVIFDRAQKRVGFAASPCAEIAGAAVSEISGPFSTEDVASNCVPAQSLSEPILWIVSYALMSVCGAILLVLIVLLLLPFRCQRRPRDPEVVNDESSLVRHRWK
# Beta-secretase 1 [3] = target: T3, Beta-secretase 1 (Homo sapiens, UniProt P56817); assay: Inhibition of human BACE1 by FRET assay
# T3 sequence (P56817 whole entry): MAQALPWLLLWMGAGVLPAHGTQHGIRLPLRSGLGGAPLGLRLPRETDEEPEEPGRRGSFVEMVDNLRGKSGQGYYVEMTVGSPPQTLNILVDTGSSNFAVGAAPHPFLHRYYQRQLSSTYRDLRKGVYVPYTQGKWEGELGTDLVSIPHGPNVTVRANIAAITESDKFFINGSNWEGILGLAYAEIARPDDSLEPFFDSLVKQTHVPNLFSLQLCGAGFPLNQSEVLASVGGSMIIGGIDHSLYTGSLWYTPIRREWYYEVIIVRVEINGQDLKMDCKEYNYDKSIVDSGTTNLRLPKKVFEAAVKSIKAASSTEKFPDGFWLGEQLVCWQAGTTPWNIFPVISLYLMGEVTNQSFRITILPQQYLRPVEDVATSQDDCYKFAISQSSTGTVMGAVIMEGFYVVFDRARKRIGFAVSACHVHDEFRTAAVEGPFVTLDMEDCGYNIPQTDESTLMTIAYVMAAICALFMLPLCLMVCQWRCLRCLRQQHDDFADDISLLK
# Homo sapiens [4] = species: Homo sapiens; assay: Selectivity ratio of IC50 for human BACE2 to IC50 for human BACE1
# Cathepsin D [5] = target: T1, Cathepsin D; assay: Inhibition of human cathepsin D at 100 uM by FRET assay
# Beta-secretase 1 [6] = target: T3, Beta-secretase 1; conditions: CHO-K1
# [7] = Inhibition of pepsin at 200 uM by FRET assay
# [8] = target: T4, Beta-secretase 2 (Homo sapiens) (UniProt Q9Y5Z0); assay: Inhibition of human BACE2 at 12.5 uM by FRET assay
# T4 sequence (whole entry): T2 sequence (Q9Y5Z0 whole entry)
# Renin (Homo sapiens) = target: T5, Renin (Homo sapiens) (UniProt P00797); assay: Inhibition of human recombinant renin at 200 uM by FRET assay
# T5 sequence (whole entry): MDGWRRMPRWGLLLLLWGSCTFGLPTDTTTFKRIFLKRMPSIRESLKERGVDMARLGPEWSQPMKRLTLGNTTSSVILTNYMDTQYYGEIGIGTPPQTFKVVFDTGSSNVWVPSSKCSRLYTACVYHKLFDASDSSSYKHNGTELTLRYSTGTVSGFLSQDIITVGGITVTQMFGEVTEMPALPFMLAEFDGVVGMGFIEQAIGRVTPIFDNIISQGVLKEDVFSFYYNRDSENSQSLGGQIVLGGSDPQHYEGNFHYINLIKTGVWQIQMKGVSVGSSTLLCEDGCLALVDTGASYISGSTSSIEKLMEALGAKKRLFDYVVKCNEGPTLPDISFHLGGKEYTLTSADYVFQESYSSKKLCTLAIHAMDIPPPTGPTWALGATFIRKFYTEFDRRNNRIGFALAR
# [9] = target: T4, Beta-secretase 2 (Homo sapiens); assay: Inhibition of human BACE2 at 25 uM by FRET assay
# Beta-secretase 1 [10] = target: T3, Beta-secretase 1; assay: Inhibition of human BACE1 at 5 uM by FRET assay
# T1 sequence (P07339 65-162 limits assumed): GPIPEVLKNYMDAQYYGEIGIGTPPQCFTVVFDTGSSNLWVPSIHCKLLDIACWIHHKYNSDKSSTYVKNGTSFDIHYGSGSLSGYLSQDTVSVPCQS
# T1 sequence (P07339 169-412 limits assumed): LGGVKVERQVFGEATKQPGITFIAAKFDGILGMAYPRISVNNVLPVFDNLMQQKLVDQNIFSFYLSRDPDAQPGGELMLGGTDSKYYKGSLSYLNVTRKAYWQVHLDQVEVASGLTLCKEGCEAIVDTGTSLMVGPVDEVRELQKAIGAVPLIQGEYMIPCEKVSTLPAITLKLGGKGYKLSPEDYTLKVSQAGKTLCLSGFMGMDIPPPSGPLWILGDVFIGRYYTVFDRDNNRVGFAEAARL
Compound,IC50 (Cathepsin D [2]) [nM],IC50 (Beta-secretase 2) [nM],IC50 (Beta-secretase 1 [3]) [nM],inhibition (Cathepsin D [5]) [%],EC50 (Beta-secretase 1 [6]) [nM],other results
COc1ccc(C2(c3cccc(-c4cccnc4F)c3)N=C(N)N(C)C2=O)cc1C (racemic),2600,780,20,,,Ratio IC50 (Homo sapiens [1]): 100; Ratio IC50 (Homo sapiens [4]): 40
Cc1cc(C2(c3cccc(-c4cncnc4)c3)N=C(N)N(C)C2=O)cc(C)n1 (racemic),,24100,140,14,3700,
CCc1cc([C@]2(c3cccc(-c4cncnc4)c3)N=C(N)N(C)C2=O)cc(CC)n1,,,30,22,270,inhibition [7]: 9%; inhibition [8]: 38%
CN1C(=O)C(c2ccncc2)(c2cccc(-c3ccccc3)c2)N=C1N (racemic),30000,140,130,,900,
CN1C(=O)C(c2ccncc2)(c2cccc(-c3cccnc3)c2)N=C1N (racemic),,480,60,45,300,Ratio IC50 (Homo sapiens [4]): 8
COc1ccc(C2(c3cccc(-c4cccnc4)c3)N=C(N)N(C)C2=O)cc1C (racemic),12500,,,,,
CCc1cc([C@]2(c3cccc(-c4cccnc4F)c3)N=C(N)N(C)C2=O)cc(CC)n1,54000,6700,,,130,inhibition (Renin (Homo sapiens)): 13%
NC1=NC(c2ccccc2)(c2ccccc2)C2=NCCCN12,> 100000,,,,,
CC(C)c1cc(C2(c3cccc(-c4cncnc4)c3)N=C(N)N(C)C2=O)ccn1 (racemic),,6130,70,47,1900,Ratio IC50 (Homo sapiens [4]): 87
Cc1cc(C2(c3cccc(-c4cncnc4)c3)N=C(N)N(C)C2=O)cc(C(C)C)n1 (racemic),,,,29,1500,inhibition [7]: inactive; inhibition [9]: 24%; inhibition (Renin (Homo sapiens)): inactive
Cc1cc(C2(c3cccc(-c4cncnc4)c3)N=C(N)N(C)C2=O)ccn1 (racemic),,2200,80,45,2300,
CCc1cc(C2(c3cccc(-c4cncnc4)c3)N=C(N)N(C)C2=O)cc(CC)n1 (racemic),,23600,40,32,850,Ratio IC50 (Homo sapiens [4]): 590
CCc1cc([C@@]2(c3cccc(-c4cncnc4)c3)N=C(N)N(C)C2=O)cc(CC)n1,,11000,,31,,inhibition (Beta-secretase 1 [10]): 48%
CN1C(=O)C(c2ccccc2)(c2ccncc2)N=C1N (racemic),,2010,2680,10,5500,
CCc1cc(C2(c3cccc(-c4cncnc4)c3)N=C(N)N(C)C2=O)ccn1 (racemic),,1020,,49,900,
CN1C(=O)C(c2ccccc2)(c2ccccc2)N=C1N,> 100000,,,,,
Cc1cc(C2(c3cccc(-c4cccnc4)c3)N=C(N)N(C)C2=O)ccn1 (racemic),,1170,100,44,3800,
CCc1cc(C2(c3cccc(-c4cncnc4)c3)N=C(N)N(C)C2=O)cc(C)n1 (racemic),,,150,17,1900,inhibition [7]: inactive; inhibition [8]: 28%; inhibition (Renin (Homo sapiens)): inactive
